Reference: patent US9320772B2, “Herbal composition for treating anxiety related conditions” (OPMOP LTD., priority 2010, dated 2016)
“Also recorded” adds a separate entry of the source.

Tests used:
C57BL/6 mice = test: Open Field Test in mice after chronic stress (MSP); type: in vivo
Method: C57BL/6 male and female infant mice were subjected to chronic stress (MSP) by separation from the dam for 6 hours per day from day 1 to day 14. Anxiety behavior was tested after different anxiolytic treatments. The mice received a daily i.p. injection from day 28 of age for two weeks, of one of the following drugs: Citalopram (10 mg/kg), or the adaptogenic composition of the invention comprising Hawthorn fruit, wheat grain and Lilly Bulb (10 mg/kg). The anxiety behavior was tested in the Open Field Test.

[1] = system: mice subjected to maternal separation and unpredictable mild stress; test: Elevated plus maze, treatment during stress; type: in vivo; conditions: 15 mg/kg i.p., 28 days during stress; control (saline) 44 seconds; p<0.05
Method: (§1) The day following parturition, postnatal day (PND) 1, the litters underwent a Maternal Separation (MS) procedure that was carried out once a day from PND 1-14. At the age of 21 days, all pups were weaned and sexed. 90 male mice were tagged, weighed, and separated into cages of up to five mice per cage, assigned randomly into four groups of treatment as previously described. Between the age of 28 and 56 days (Adolescence), mice were subjected to an Unpredictable Mild Stress paradigm. In this experiment three different stressors were used—all mice were subjected once a day to one of the following stressors: restrainers; placement in an empty cage with water at the bottom; or inversion of light/dark cycle. To prevent habituation and to provide an unpredictable feature to the stressors, every day different stressor was administered for four hours, at different time points of the day. During the entire stress paradigm, drugs were administrated through i.p. injection of the relevant treatment, for the duration of 28 days. Upon reaching adulthood and following four weeks of treatment, behavior, peripheral hormones and brain monoamines were measured in order to assess the effects of the novel treatment. […]

[2] = system: mice subjected to maternal separation and unpredictable mild stress; test: Sucrose test, treatment during stress; type: in vivo; conditions: escitalopram group (15 mg/kg as previously described) i.p., 28 days during stress; control (saline) 51 ml; p<0.05
Method: The day following parturition, postnatal day (PND) 1, the litters underwent a Maternal Separation (MS) procedure that was carried out once a day from PND 1-14. At the age of 21 days, all pups were weaned and sexed. 90 male mice were tagged, weighed, and separated into cages of up to five mice per cage, assigned randomly into four groups of treatment as previously described. Between the age of 28 and 56 days (Adolescence), mice were subjected to an Unpredictable Mild Stress paradigm. In this experiment three different stressors were used—all mice were subjected once a day to one of the following stressors: restrainers; placement in an empty cage with water at the bottom; or inversion of light/dark cycle. To prevent habituation and to provide an unpredictable feature to the stressors, every day different stressor was administered for four hours, at different time points of the day. During the entire stress paradigm, drugs were administrated through i.p. injection of the relevant treatment, for the duration of 28 days. Upon reaching adulthood and following four weeks of treatment, behavior, peripheral hormones and brain monoamines were measured in order to assess the effects of the novel treatment. […] After the 12 hours, the amount of ordinary water, sucrose water and food eaten by the mouse, was calculated. […]

BALB mice = test: Novel open field test after acute stress (Yohimibine injection); type: in vivo; conditions: 15 mg/kg/day i.p., three weeks of treatment, after Yohimibine i.p. 1.25 mg/kg, p<0.05 adaptogenic mixture, p<0.0.1 escitalopram
Method: FIG. 2A: Effect of treatment in the novel open field Test following one week of treatment. FIG. 2B: Effect of treatment in the novel open field Test following two weeks of treatment. […] Mice were treated through i.p. injection with the adaptogenic mixture (15 mg/kg/day), escitalopram (15 mg/kg/day) or vehicle. The acute stress was obtained with Yohimibine i.p injection, a drug known to activate a stress-reaction (Vasa et al., 2009). […] The Novel Open Field is another well-established test of anxiety-related behavior in rodents. The Open Field area generally consists of an empty and bright square arena, surrounded by walls to prevent the rodent from escaping. The rodent is usually placed in the center of the arena and its behavior recorded over a chosen period. The Novel Open Field task approaches the conflict between the innate fear that rodents have of the central area of a novel or brightly lit open field versus their desire to explore new environments. When anxious, the natural tendency of rodents is to prefer staying close to the walls. In this context, anxiety-related behavior is measured by the degree to which the rodent avoids the center of the arena.

[3] = system: Brain-derived neurotrophic factor (BDNF); test: Hippocampal BDNF levels by EIA, treatment during stress; type: in vivo, mice; conditions: escitalopram group (15 mg/kg as previously described), 28 days during stress; control (saline) 12 pc/μg; p<0.05
Method: The day following parturition, postnatal day (PND) 1, the litters underwent a Maternal Separation (MS) procedure that was carried out once a day from PND 1-14. At the age of 21 days, all pups were weaned and sexed. 90 male mice were tagged, weighed, and separated into cages of up to five mice per cage, assigned randomly into four groups of treatment as previously described. Between the age of 28 and 56 days (Adolescence), mice were subjected to an Unpredictable Mild Stress paradigm. In this experiment three different stressors were used—all mice were subjected once a day to one of the following stressors: restrainers; placement in an empty cage with water at the bottom; or inversion of light/dark cycle. To prevent habituation and to provide an unpredictable feature to the stressors, every day different stressor was administered for four hours, at different time points of the day. During the entire stress paradigm, drugs were administrated through i.p. injection of the relevant treatment, for the duration of 28 days. Upon reaching adulthood and following four weeks of treatment, behavior, peripheral hormones and brain monoamines were measured in order to assess the effects of the novel treatment.
At the end of the experiment, all treated mice were sacrificed. The brains of the mice were placed in a mold on ice. […] Brain-derived neurotrophic factor (BDNF) was measured by EIA. […]

Corticosterone [4] = test: Corticosterone levels following acute restraint stress (RIA), treatment after chronic stress; type: in vivo; conditions: stressed ICR mice, 15 mg/kg i.p., 3 weeks, p<0.05 adaptogenic mixture, p<0.01 escitalopram
Method: In order to estimate the endocrinology reaction to acute stress mice were first placed in restraint. Restraint stress is a well documented stressor that initiates an acute transient increase in plasma ACTH and Corticosterone, usually peaking during the course of a 60 min stress exposure. Therefore, following 60 minutes of subjection to restraint stress, blood samples were collected into EDTA-coated tubes from the facial vein. All blood samples were kept on ice and later centrifuged for 10 min at 10000 rpm at 4°. Plasma was transferred to clean, labeled 1.5 ml microcentrifuge tubes. All plasma samples were stored frozen at −20 C.° until the determination of Corticosterone via RIA. Subsequent to the stress manipulations, anxiety-like behavior was assessed via the elevated plus maze in order to assess the effect of the stress manipulations. […] Following three weeks of treatment with the relevant drug or vehicle, anxiety-like behavior was assessed via the elevated plus maze. 48 hours thereafter and while mice were still receiving treatment, blood samples were collected following acute stress and Corticosterone levels were measured via radio immunoassay (RIA) assay. […] Anxiety-related behaviors were assessed using the elevated-plus maze and indicated anxiogenic effect of the stress manipulation. […]

Corticosterone [5] = test: Corticosterone levels following acute restraint stress (RIA), treatment during stress; type: in vivo, mice; conditions: escitalopram group (15 mg/kg as previously described), 28 days during stress; control 80.9 ng/ml; p<0.05
Method: as §1, with “treatment. In order to estimate the endocrinological reaction to acute stress, mice were first placed in restrainers.” for “treatment.”

ICR mice = test: Elevated plus maze after maternal separation and unpredictable chronic mild stress, treatment after stress; type: in vivo; conditions: stressed ICR mice, 15 mg/kg i.p., 21 days, p<0.05
Method: On the day of parturition, PND 0 (postnatal day), litters were randomly assigned to undergo MS or to be standard facility reared (SFR) controls. SFR animals were left undisturbed during the entire stress manipulation (both maternal separation and unpredictable chronic mild stress manipulation), except for routine cage maintenance performed once a week. MS procedure was carried out once per day from PND 1-14. The MS procedure was performed by removing the pups from the home cage and placing them together in a separate clean cage placed on a heating pad (30-33° C.) in order to keep the pups in a temperature close to the dam's natural body temperature. 6 hours later, pups were returned to their home cage. […] Elevated plus-maze: Each mouse was placed in the center of the elevated plus maze and his behavior was recorded for the duration of 5 minutes. […] Subsequent to the stress manipulations, anxiety-like behavior was assessed via the elevated plus maze in order to assess the effect of the stress manipulations. […] Following three weeks of treatment with the relevant drug or vehicle, anxiety-like behavior was assessed via the elevated plus maze. 48 hours thereafter and while mice were still receiving treatment, blood samples were collected following acute stress and Corticosterone levels were measured via radio immunoassay (RIA) assay. […]

SMILES | Time inside the center of the arena, Open Field Test (C57BL/6 mice; MSP (chronically stressed) C57BL/6 mice, 10 mg/kg i.p. daily for two weeks, saline 1.8 seconds, n=16) [s] | Entries to the inside of the arena, Open Field Test (C57BL/6 mice; MSP C57BL/6 mice, 10 mg/kg i.p. daily for two weeks, saline 1.6 times, n=16) [times] | Time inside the center of the arena, Open Field Test (C57BL/6 mice; treated, unstressed mice, 10 mg/kg i.p., saline unstressed 4.5 seconds) [s] | Time spent in the open arms, Elevated Plus Maze [1] [s] | Sucrose consumption, sucrose test [2] [mL] | Time spent inside the field of the control group in comparison to the treated group, novel open field (BALB mice) | BDNF levels (hippocampus) [3] [pc/μg] | Corticosterone levels following acute restraint stress in comparison to control group (Corticosterone [4]) | Corticosterone levels following acute restraint stress (Corticosterone [5]) [ng/mL] | Time spent in the open arms in comparison to control group, elevated plus maze (ICR mice)
CN(C)CCCC1(c2ccc(F)cc2)OCc2cc(C#N)ccc21 (stereo not shown) [Citalopram] | 2.5 | 2.4 | 4.6 | – | – | – | – | – | – | –
CN(C)CCC[C@@]1(c2ccc(F)cc2)OCc2cc(C#N)ccc21 [escitalopram, Escitalopram] | – | – | – | 64 | 55 | significantly less pronounced | 16 | significantly lower; also recorded: same effect | 77.3 | significantly more time; also recorded: same effect
